These results are taken from patent publication US10562890B2, “Cancer therapeutics” (UNIVERSITY OF VIRGINIA PATENT FOUNDATION, priority 2014, dated 2020).

Some results are limits rather than exact numbers.

The IC50 is the concentration at which inhibition is half-maximal. The term solubility denotes the concentration that dissolves in the medium under given conditions.

Data set [1] in a line: Sedative effects and tolerability in mice after IP administration. Type of data set: in vivo. The note with it: intraperitoneal (IP) injection. From the text: “NA” indicates not active. […] Reasoning that this effect depended on the ability of the compound to cross the blood brain barrier (BBB), compounds Al-12-126 and Al-14-91 have appended morpholine ring substituents to the 5 position of the pyridine ring to increase the polarity of the compounds and thereby limit BBB penetration.

In data set [2] the test system is OVCAR8 ovarian cancer cells. Put plainly: CellTiter-Glo viability assay, OVCAR8. Type of data set: cell-based. The note with it: Homo sapiens, OVCAR-8, OVCAR8, 72 hours. The method, then:
(§1) OVCAR8 cells were grown in RPMI 1640 supplemented with 10% Fetal bovine serum and 1% antibiotics. OVCAR4 cells were grown in RPMI 1640 supplemented with 20% fetal bovine serum and 1% antibiotics. Cells growing at approximately 70% confluency were trypsinized and 2500 cells per well were re-plated in opaque bottomed 96-well plates.
(§2) 24 hours after plating, chemical compounds diluted in DMSO were mixed with cell growth media and added to cells. Compounds mixed with media were made at 10× concentration. Cells treated with compounds were incubated for 72 hours in a humidified incubator at 37° C. supplemented with 5% CO2. Percentage of cells viable after 72 hours was determined by CellTitler-Glo according to the manufacturer's instructions. Data analysis was performed using GraphPad 5.0.
(§3) In the graph, the ordinate represents % inhibition and the abscissa represents the log value of the concentration of the compound.
(In general: Cellular ATP, detected with luciferase, serves as a proxy for viable cell number.)

A further data set has as its system MLL-AF4 leukemia cells. Put plainly: Cell death of MLL-AF4 leukemia cells. The format is cell-based, human.
Data set [3] concerns inducible Runx1 (iRx) ES cells. Put plainly: Inducible Runx1 (iRx) ES cell differentiation system, FACS. Type of data set: cell-based. Here is the method: FIG. 3A is a schematic diagram representing the inducible Runx1 (iRx) ES cell differentiation system. ES cells were allowed to form embryoid bodies (EB) in IVD culture media and hemangioblast Flk1 positive cells were sorted and seeded into blast culture media. After 2 days, a second Flk1 sort was performed and Flk1 positive cells were cultured in hemogenic endothelium culture conditions. In the absence of doxycycline (−dox), Runx1 is absent and cells cannot progress from the HE1 stage of development. In the presence of doxycycline (+dox), Runx1 is expressed and differentiation progresses, resulting in the formation of CD41+ve/c-kit+ve floating progenitors.
FIG. 3C provides representative FACS histograms showing staining of the surface markers CD41 and c-kit in cells treated with the compounds and in the presence or absence of doxycycline, as indicated.
FIG. 3D provides representative FACS histograms showing staining of Annexin V and Propidium Iodide (PI) in cells treated with compounds Al-10-104 and Al-4-88 in the absence or presence of doxycycline, as indicated.

The subject of data set [4] is T-ALL cell lines Jurkat, HBP-ALL, Loucy, and KOPTK1. The experiment in a line: Proliferation of T-ALL cell lines. The format is cell-based, human.
Data set [5] can be described thus: Aqueous solubility in 0.25% DMSO by NMR spectroscopy. Type of data set: physicochemical. As to conditions: aqueous, kinetic from dmso stock; 0.25% DMSO, NMR spectroscopy; read-out: aqueous solubility. The method, then:
Al-10-104, Al-12-126, and Al-14-91 were all soluble at concentrations above 100 μM. […] As the Runt domain is highly conserved among all three RUNX family members, we would expect to see similar effects on binding to RUNX2 or RUNX3. Therefore, the action of the inhibitors will likely affect the activity of all three RUNX family members.

A further data set has as its system lung cancer cell lines. Put plainly: MTT growth assay, several lung cancer cell lines. The format is cell-based. Here is the method: (§4) Activity of Al-10-104 was tested using several lung cancer cell lines and one immortalized, non-transformed lung cell line. […] Data for the squamous cell carcinoma of the lung cell line H520 and the immortalized normal lung epithelial cell line BEAS-2B are shown in FIG. 10.
For orientation: Tetrazolium dyes change colour on reduction, which living cells bring about.

In data set [6] the target is binding of CBFβ to RUNX1 in SEM cells (Homo sapiens (Human), UniProt Q13951). The experiment in a line: Co-immunoprecipitation of CBFβ with RUNX1 in SEM cells. Type of data set: cell-based. As to conditions: 10 μM, 6 hours. Here is the method:
To test whether the wild-type CBFβ Inhibitors can disrupt the binding of CBFβ to RUNX1 in cells, co-immunoprecipitation experiments were performed in the SEM cell line. Co-immunoprecipitation assays of lysates from […] SEM cells were treated with Al-4-88^1, Al-10-47, Al-10-104, Al-12-126 and Al-14-91 at 10 μM for 6 hours. RUNX1-bound CBFβ protein levels and immunoprecipitated RUNX1 are shown on the top panel of FIG. 2A. Quantification of RUNX1 bound CBFβ is shown on the bottom graph.

The subject of a further data set is 11 leukemia cell lines. The experiment in a line: Viability of a panel of 11 leukemia cell lines. The format is cell-based. The note with it: 48 hours of treatment. From the text: Compounds Al-4-88, Al-4-57, Al-10-47, Al-10-104, and Al-14-91 were screened against a panel of 11 leukemia cell lines with varying genotypes.
The viability is represented as the percent DAPI negative cells relative to DMSO control. Each symbol/color in the graphs of FIG. 4 represent an individual cell line. The symbol represents the mean of independent replicates and the error bars represent the SEM. The table indicates the morphology, type of leukemia, and known mutations for each of the 11 cell lines.

For data set [7], the system named is OVCAR4 ovarian cancer cells. The experiment in a line: CellTiter-Glo viability assay, OVCAR4. Type of data set: cell-based. The note with it: Homo sapiens, OVCAR-4, OVCAR4, 72 hours. The method, then: as §1, §2, §3
Data set [8] relates to BEAS-2B normal lung cells. Put plainly: MTT growth assay, BEAS-2B cells. As to conditions: 10 μM, 72 hrs. The format is cell-based. The method, then: as §4
(§5) H520 cells were cultured in RPMI 1640 medium, supplemented with fetal bovine serum (10% final concentration), Hepes (1%), and sodium priruvate (1%). The MTT assay used 4×10^5/ml cells. BEAS-2B cells were cultured in DMEM medium with fetal bovine serum (10% final concentration). The MTT assay for the BEAS-2B cell line was performed using 3.5×10^5/ml cells.
(§6) Al-4-88 had no effect on either cell line.

In a further data set the test system is H520 lung cancer cells. The experiment in a line: MTT growth assay, H520 cells. The format is cell-based. As to conditions: H520, 10 μM, 72 hrs. The method, then:
as §4, §5, §6

binding of CBFβ to RUNX1 in SEM cells, sequence (Q13951 whole entry): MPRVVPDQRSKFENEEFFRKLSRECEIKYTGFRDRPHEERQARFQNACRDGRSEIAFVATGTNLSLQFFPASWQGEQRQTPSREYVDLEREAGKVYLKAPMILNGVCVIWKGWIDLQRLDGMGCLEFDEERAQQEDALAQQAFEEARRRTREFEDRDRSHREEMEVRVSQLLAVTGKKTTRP

Regarding `COc1cccnc1-c1nc2cc(OC(F)(F)F)ccc2[nH]1` [Al-10-104], the sedative effects entry in [1] is on record as “significant sedative effects that were lethal at high doses”. Besides, the IC50 in data set [2] worked out at 4.84 µM; in data set [7], 5.86 µM. In the data set on MLL-AF4 leukemia cells, the cell death entry is “induced cell death”. In [3] (10 μM, in the presence of doxycycline), the “percentage of cells expressing c-kit and CD41” value was “reduced”. In data set [3] (adherent cells, absence or presence of doxycycline), the “apoptosis (Annexin V and PI staining)” value is listed as “apoptosis is not increased”. The proliferation entry in [4] was “inhibited proliferation”. Moreover, in data set [5], the solubility is over 100 µM. For the same molecule, the “growth inhibition (MTT assay)” value in the data set with lung cancer cell lines is recorded as “growth inhibition”. In addition, the “RUNX1-bound CBFβ (co-immunoprecipitation)” value in data set [6] is given as “reduction in binding”. Moreover, the “percent viability (DAPI negative cells relative to DMSO)” value in the data set on 11 leukemia cell lines is “significant inhibition of the majority of the cell lines”. For the same molecule, the “cell growth (MTT assay)” value is listed as “no effect” in data set [8] and “inhibited almost as effectively as 1 μM staurosporine” in the data set with H520 lung cancer cells.
